Measurements reported in patent US20230241056A1, “PHARMACEUTICAL COMPOSITION FOR TREATING MACULAR DEGENERATION INCLUDING IMIDAZOLINE DERIVATIVE COMPOUND AS ACTIVE INGREDIENT” (FUSION BIOTECHNOLOGY CO., LTD., priority 2021, published 2023).

How the values were obtained:
p53 = p53 overexpression induction, western blot; type: cell-based, human; conditions: Nutlin-3 at different concentrations
Experimental: Doxorubicin-treated senescent cells (SnCs) grown in the 6-well plate of Example 1 and non-senescent cells (non-SnCs) were treated with different concentrations of Nutlin-3, and then, dissolved in RIPA buffer (Thermo Fisher Scientific, 89901) supplemented with protease inhibitor cocktail (Roche, 11697498001, Basel, Switzerland). The protein concentration of cells was quantified using BCA assay (Pierce, 23227, Waltham, USA). The same amount of protein was separated by SDS-PAGE in a 10-12% polyacrylamide gel and transferred to a polyvinylidene difluoride (PVDF) membrane. Then, the PVDF membrane was blocked with 5% skim milk powder in buffer for 1 hour, and anti-p53 (1: 500, Santa Cruz Biotechnology, SC-126) and anti-β-actin (1: 2000, Abcam, ab8226) antibodies were added thereto, incubated overnight at 4° C., and then incubated with horseradish peroxidase-conjugated anti-mouse IgG (1: 5000, Cell Signaling, 7076S) antibodies. The immunoreactive proteins were then visualized using a chemiluminescent substrate (Amersham, RDN2232, Little Chalfont, UK) and quantified with a densitometer using ImageJ software (NIH, USA). All experiments were repeated at least three times.

retinal tissue [1] = assay: Lesion mitigation in vivo, color fundus and fundus autofluorescence images; conditions: 20 ng/μl Nutlin-3 intravitreal, senescence-induced mice
Experimental: (§1) After dilation of the eye with TRC-50 IX camera (Topcon, Tokyo, Japan) connected to a digital imaging system (Nikon, Japan) and HRA2 (Heidelberg Engineering, Heidelberg, Germany), the color fundus image and fundus autofluorescence image of the eye of the mice were each captured. […] In addition, in order to identify the cell tissue alignment state, ZO-1 expression was confirmed. Specifically, after blocking the retinal tissue with 1% BSA in PBS for 1 hour, fixed tissue or cells were incubated with primary antibody against ZO-1 (1:250, Invitrogen) overnight at 4° C. Stained tissues or cells were washed twice with PBS for 5 minutes and incubated with Alexa Fluor-conjugated secondary antibody for 2 hours at room temperature. As the secondary antibody, Alexa Fluor 555-conjugated goat anti-mouse IgG (Thermo Fisher Scientific, A-11029, Waltham, USA), Alexa Fluor 488-conjugated goat anti-mouse IgG (Thermo Fisher Scientific, A-21424), Alexa Fluor 555-conjugated goat anti-rabbit IgG (Thermo Fisher Scientific, A-21424), or Alexa Fluor 488-conjugated \u200b\u200b goat anti-rabbit IgG (Thermo Fisher Scientific, A-11034) was used. All secondary antibodies were used after being diluted at the ratio of 1:1000. […]

retinal tissue [2] = assay: Drusen and Bruch's membrane thickness in vivo by TEM after Nutlin-3; design: species or system mice; conditions: doxorubicin and Nutlin-3 group
Experimental: The eyeball of mice in a group injected with a vehicle alone as in Example 9, a group injected with doxorubicin and a vehicle, and a group injected with doxorubicin and Nutlin-3, were fixed with a solution including 2% glutaraldehyde and 3.75% sucrose in 0.1 M sodium phosphate buffer (pH 7.0) for 30 minutes, and washed three times with 0.1 M PBS including 3.75% sucrose for 30 minutes to prepare a sample for TEM. The eye was fixed with a solution including 0.1% osmium tetraoxide and 5% sucrose in 0.05 M sodium phosphate buffer (pH 7.0) for 1 hour and rinsed three times with distilled water. The sample was then dehydrated in a series of acetone solutions (step 20%), which are graded, and embedded in an epoxy resin. The resin was polymerized at 70° C. for 12 hours. Ultra-thin sections (100 nm) were obtained using RMC CR-X ultra microtomes and then images thereof were obtained using a JEOL JEM-1400 electron microscope. The thickness of the Bruch's membrane was measured using TEM. The average thickness of the Bruch's film was determined by measuring the thicknesses in the nine images of respective groups, and the results are shown in FIGS. 16 and 17.

[3] = tested on: Doxorubicin-treated senescent cells (SnCs) and non-senescent cells (ARPE-19); assay: Selective killing of senescent cells, propidium iodide staining; type: cell-based, human; conditions: PI staining
Experimental: To determine whether Nutlin-3 selectively killed senescent cells, the cells were treated with Nutlin-3 as follows and stained with propidium iodide.
Doxorubicin-treated senescent cells (SnCs) grown in the 24-well plate of Example 1 and non-senescent cells (non-SnCs) were treated with Nutlin-3 at different concentrations. After 24 hours, the medium was removed, and a medium including propidium iodide (PI, BD Biosciences, 51-66211E, 1.5 ug/ml) and Hoechst 33342 (Invitrogen, H1399, 1 ug/ml) was added to each well. After 30 minutes, images were obtained using an ultra-high-resolution confocal laser scanning microscope (Carl Zeiss, LSM 800).

ZO-1 or APOE = assay: ZO-1 and drusen marker APOE expression in vivo with combination; conditions: senescence-induced mice of Example 12
Experimental: In addition, the expression of ZO-1 and the expression of the drusen marker APOE were confirmed to identify the cell tissue alignment state. Specifically, after blocking the retinal tissue with 1% BSA in PBS for 1 hour, fixed tissue or cells were incubated with primary antibody (1:50, Santa Cruz Biotechnology) against ZO-1 (1:250, Invitrogen) or APOE overnight at 4° C. Stained tissues or cells were washed twice with PBS for 5 minutes and incubated with Alexa Fluor-conjugated secondary antibody for 2 hours at room temperature. As the secondary antibody, Alexa Fluor 555-conjugated goat anti-mouse IgG (Thermo Fisher Scientific, A-11029, Waltham, USA), Alexa Fluor 488-conjugated goat anti-mouse IgG (Thermo Fisher Scientific, A-21424), Alexa Fluor 555-conjugated goat anti-rabbit IgG (Thermo Fisher Scientific, A-21424), or Alexa Fluor 488-conjugated \u200b\u200b goat anti-rabbit IgG (Thermo Fisher Scientific, A-11034) was used. All secondary antibodies were used after being diluted at the ratio of 1:1000. After incubation with the secondary antibody, tissues or cells were stained with nuclear dye DAPI (1:4000, Thermo Fisher Scientific, 62248) or Hoechst 33342 (1:3000, Thermo Fisher Scientific, H3570) in PBS for 15 minutes at room temperature. Thereafter, the tissues were then fixed in a fixing media (Ployscience, 18606-20, PA, USA).

ZO-1 = assay: Cell tissue alignment state in vivo, ZO-1 expression; conditions: 20 ng/μl Nutlin-3 intravitreal, senescence-induced mice
Experimental: as §1

retinal tissue [4] = assay: Lesion alleviation in vivo with combination, fundus autofluorescence image; conditions: senescence-induced mice of Example 12
Experimental: Under an optical microscope (Olympus SZ51, Tokyo, Japan), a small hole was made in the limbus using a 30-gage sterile needle (BD Science, San Jose, USA). Then, a blunt 35-gage Hamilton microsyringe (Hamilton Company, NV, USA) was slowly inserted through the hole. After injecting 1 uL of 100 ng/μl Dox or 1.4 μg/μl Alu RNA into the subretinal space of C57BL/6N or C57BL/6J mice for 7 days, 20 ng/μl Nutlin-3 (#SML0580, St. Louis, USA) or vehicle (0.4% DMSO in normal saline) was administered to the retina on day 0 and day 3, and 50 mg/kg of Nutlin-3 and 100 mg/kg of nicotinamide were mixed at the ratio of 1:2 and the mixture was administered orally through the feeding needle catheter every day for 3 days.
After dilation of the eye with TRC-50 IX camera (Topcon, Tokyo, Japan) connected to a digital imaging system (Nikon, Japan) and HRA2 (Heidelberg Engineering, Heidelberg, Germany), the fundus autofluorescence image of the eye of the mice was captured.

[5] = tested on: senescent cells of the retinal tissue; assay: Senescent cell killing in vivo, SA-β-gal staining of retinal tissue; conditions: 20 ng/μl Nutlin-3 intravitreal, 2 injections, Dox or Alu RNA induced mice
From the text: Anterior eyeballs were dissected in cold PBS.

retinal tissue [6] = assay: Drusen and Bruch's membrane thickness by TEM after senescence induction with doxorubicin; type: in vivo, mice; conditions: 100 ng/μl Dox subretinal
Experimental: Under an optical microscope (Olympus SZ51, Tokyo, Japan), a small hole was made in the limbus using a 30-gage sterile needle (BD Science, San Jose, USA). Then, a blunt 35-gage Hamilton microsyringe (Hamilton Company, NV, USA) was slowly inserted through the hole. 1 uL of 100 ng/μl Dox or 1.4 μg/μl Alu RNA was injected into the subretinal space of C57BL/6N or C57BL/6J mice for 7 days. In addition, the eye of mice was fixed with a solution including 2% glutaraldehyde and 3.75% sucrose in 0.1 M sodium phosphate buffer (pH 7.0), for 30 minutes, and washed three times with 0.1 M PBS including 3.75% sucrose for 30 minutes to prepare a sample for TEM. The eye was fixed with a solution including 0.1% osmium tetraoxide and 5% sucrose in 0.05 M sodium phosphate buffer (pH 7.0) for 1 hour and rinsed three times with distilled water. The sample was then dehydrated in a series of acetone solutions (step 20%), which were graded, and embedded in an epoxy resin. The resin was polymerized at 70° C. for 12 hours. Ultra-thin sections (100 nm) were obtained using RMC CR-X ultra microtomes and then images thereof were obtained using a JEOL JEM-1400 electron microscope. The thickness of the Bruch's membrane was measured using TEM.

ARPE-19 cells = assay: Induction of senescent cells by doxorubicin, SA-β-gal staining; type: cell-based, human; conditions: 250 nM doxorubicin, 3 days
From the text: ARPE-19, a human retinal pigment epithelium (RPE) cell line, was induced into senescent cells using doxorubicin (Dox), which is used to form peroxide anions, induce DNA damage, and induce cell aging.
ARPE-19 cells were obtained from American Type Culture Collection (ATCC, CRL-2302, Va., U.S.A.), and cultured using a Dulbecco's modified Eagle's medium/nutrient mixture F-12 (WellGene, LM 002-04, Korea) supplemented with 10% fetal bovine serum (Invitrogen 16000, Waltham, U.S.A.) and penicillin-streptomycin (pen/strep, WellGene, LS 202-02) in a humidifying incubator having 5% CO2 at the temperature of 37° C. Cells were used after the cells were subcultured to 15-25 passages and reached the density population of about 70%-about 80%.
The cultured ARPE-19 cells were seeded in 24- or 6-well plates at a density of 25,000 or 100,000 cells per well prior to inducing cell aging with doxorubicin (Dox, Tocris Bioscience #2252, Bristol, UK). After 24 hours, 250 nM doxorubicin was added and the cells were incubated for another 3 days. After 3 days, the cells were placed in a doxorubicin-free medium and the medium was replaced daily. On day 10, senescent cells (SnCs) that were treated with doxorubicin and non-senescent cells (non-SnCs) that were not treated with doxorubicin but replaced with medium alone were seeded into 24- or 6-well plates for further experiments. […]

Row | Structure (SMILES) | expression of p53 in senescent cells (p53) | waste in fundus images compared to vehicle group (retinal tissue [1]) | amount of drusen compared to vehicle-only senescent cells (retinal tissue [2]) | thickness of the Bruch's membrane compared to vehicle-only senescent cells (retinal tissue [2]) | senescent cells killed compared with non-senescent cells ([3]; 50 uM Nutlin-3, 24 hours) | senescent cells killed compared with non-senescent cells ([3]; 75 uM Nutlin-3, 24 hours) | cell tissue alignment state (ZO-1) compared to vehicle group (ZO-1 or APOE) | cell tissue alignment (ZO-1) compared to vehicle group (ZO-1) | waste in fundus autofluorescence image compared to vehicle group (retinal tissue [4]) | β-galactosidase expression compared to vehicle group [5] | amount of drusen after senescent cell induction (retinal tissue [6]) | thickness of the Bruch's membrane after senescent cell induction (retinal tissue [6]) | induction of ARPE-19 cells into senescent cells (SA-β-gal staining) (ARPE-19 cells)
1 | COc1ccc(C2=N[C@@H](c3ccc(Cl)cc3)[C@@H](c3ccc(Cl)cc3)N2C(=O)N2CCNC(=O)C2)c(OC(C)C)c1 [Nutlin-3] | further increased | significantly reduced | reduced | reduced | 7 times | 3 times | improved | improved | significantly reduced | low |  |  | 
2 | COc1cccc2c1C(=O)c1c(O)c3c(c(O)c1C2=O)C[C@@](O)(C(=O)CO)C[C@@H]3O[C@H]1C[C@H](N)[C@H](O)[C@H](C)O1 [doxorubicin] |  |  |  |  |  |  |  |  |  |  | increased | increased | induced to senescent cells
